According to patent US10040781B2, “Tank-binding kinase inhibitor compounds” (Gilead Sciences, Inc., priority 2014, dated 2018):

Columns and labels:
IKKε = IKKε (Homo sapiens (Human), UniProt Q14164); test: IKKε TR-FRET enzymatic assay; assay type: biochemical; conditions: read-out: IKKe IC50
hJAK2 = hJAK2 (Homo sapiens (Human), UniProt O60674); test: hJAK2 LANCE TR-FRET enzymatic assay; assay type: biochemical; conditions: read-out: JAK2 IC50
TBK1 = TBK1 (Homo sapiens (Human), UniProt Q9UHD2); test: TBK1 TR-FRET enzymatic assay;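 also: phosphorylation of a biotinylated Ser/Thr peptide by purified full-length recombinant TBK1, read by TR-FRET after 240 min at 25 °C, IC50 is the geometric mean of at least four runs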
Chain of TBK1 (Q9UHD2 whole entry): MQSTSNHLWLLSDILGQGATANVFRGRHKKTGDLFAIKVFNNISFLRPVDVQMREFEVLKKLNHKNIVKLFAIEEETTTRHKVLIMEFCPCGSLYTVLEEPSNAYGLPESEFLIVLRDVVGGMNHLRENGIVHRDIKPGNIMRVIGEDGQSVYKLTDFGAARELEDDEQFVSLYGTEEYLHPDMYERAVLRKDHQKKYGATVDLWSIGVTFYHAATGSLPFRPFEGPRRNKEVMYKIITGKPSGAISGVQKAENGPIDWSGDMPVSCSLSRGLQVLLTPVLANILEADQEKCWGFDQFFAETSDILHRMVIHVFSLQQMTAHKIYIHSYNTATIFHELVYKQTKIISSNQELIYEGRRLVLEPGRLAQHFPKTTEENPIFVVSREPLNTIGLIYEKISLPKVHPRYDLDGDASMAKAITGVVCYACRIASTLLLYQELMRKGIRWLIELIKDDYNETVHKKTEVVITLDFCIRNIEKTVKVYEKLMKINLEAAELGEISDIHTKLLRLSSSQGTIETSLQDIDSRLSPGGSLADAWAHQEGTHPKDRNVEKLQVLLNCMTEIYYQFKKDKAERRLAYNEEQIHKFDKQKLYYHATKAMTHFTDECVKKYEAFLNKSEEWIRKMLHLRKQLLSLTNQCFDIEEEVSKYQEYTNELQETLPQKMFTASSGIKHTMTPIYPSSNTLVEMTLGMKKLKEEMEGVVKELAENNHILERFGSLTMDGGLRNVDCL

Chain of IKKε (Q14164 whole entry): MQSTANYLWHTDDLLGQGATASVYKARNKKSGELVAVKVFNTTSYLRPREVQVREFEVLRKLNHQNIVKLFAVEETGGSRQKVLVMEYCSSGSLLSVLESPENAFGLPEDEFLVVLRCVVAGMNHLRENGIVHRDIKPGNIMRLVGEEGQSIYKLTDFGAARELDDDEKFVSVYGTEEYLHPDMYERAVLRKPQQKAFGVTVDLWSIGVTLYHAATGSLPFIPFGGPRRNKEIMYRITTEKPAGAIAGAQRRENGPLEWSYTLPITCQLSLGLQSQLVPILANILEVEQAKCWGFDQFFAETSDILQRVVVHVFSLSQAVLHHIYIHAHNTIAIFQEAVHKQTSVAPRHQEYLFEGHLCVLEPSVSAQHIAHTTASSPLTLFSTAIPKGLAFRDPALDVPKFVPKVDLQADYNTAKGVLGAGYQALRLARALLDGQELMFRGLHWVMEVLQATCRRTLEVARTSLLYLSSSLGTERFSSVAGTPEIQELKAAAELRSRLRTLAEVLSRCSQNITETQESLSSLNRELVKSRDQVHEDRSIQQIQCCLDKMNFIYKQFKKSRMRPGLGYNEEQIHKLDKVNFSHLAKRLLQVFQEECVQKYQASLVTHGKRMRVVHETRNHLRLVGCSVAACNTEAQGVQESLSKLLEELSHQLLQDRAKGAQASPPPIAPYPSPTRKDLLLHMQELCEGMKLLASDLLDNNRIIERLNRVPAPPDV
Chain of hJAK2 (O60674 whole entry): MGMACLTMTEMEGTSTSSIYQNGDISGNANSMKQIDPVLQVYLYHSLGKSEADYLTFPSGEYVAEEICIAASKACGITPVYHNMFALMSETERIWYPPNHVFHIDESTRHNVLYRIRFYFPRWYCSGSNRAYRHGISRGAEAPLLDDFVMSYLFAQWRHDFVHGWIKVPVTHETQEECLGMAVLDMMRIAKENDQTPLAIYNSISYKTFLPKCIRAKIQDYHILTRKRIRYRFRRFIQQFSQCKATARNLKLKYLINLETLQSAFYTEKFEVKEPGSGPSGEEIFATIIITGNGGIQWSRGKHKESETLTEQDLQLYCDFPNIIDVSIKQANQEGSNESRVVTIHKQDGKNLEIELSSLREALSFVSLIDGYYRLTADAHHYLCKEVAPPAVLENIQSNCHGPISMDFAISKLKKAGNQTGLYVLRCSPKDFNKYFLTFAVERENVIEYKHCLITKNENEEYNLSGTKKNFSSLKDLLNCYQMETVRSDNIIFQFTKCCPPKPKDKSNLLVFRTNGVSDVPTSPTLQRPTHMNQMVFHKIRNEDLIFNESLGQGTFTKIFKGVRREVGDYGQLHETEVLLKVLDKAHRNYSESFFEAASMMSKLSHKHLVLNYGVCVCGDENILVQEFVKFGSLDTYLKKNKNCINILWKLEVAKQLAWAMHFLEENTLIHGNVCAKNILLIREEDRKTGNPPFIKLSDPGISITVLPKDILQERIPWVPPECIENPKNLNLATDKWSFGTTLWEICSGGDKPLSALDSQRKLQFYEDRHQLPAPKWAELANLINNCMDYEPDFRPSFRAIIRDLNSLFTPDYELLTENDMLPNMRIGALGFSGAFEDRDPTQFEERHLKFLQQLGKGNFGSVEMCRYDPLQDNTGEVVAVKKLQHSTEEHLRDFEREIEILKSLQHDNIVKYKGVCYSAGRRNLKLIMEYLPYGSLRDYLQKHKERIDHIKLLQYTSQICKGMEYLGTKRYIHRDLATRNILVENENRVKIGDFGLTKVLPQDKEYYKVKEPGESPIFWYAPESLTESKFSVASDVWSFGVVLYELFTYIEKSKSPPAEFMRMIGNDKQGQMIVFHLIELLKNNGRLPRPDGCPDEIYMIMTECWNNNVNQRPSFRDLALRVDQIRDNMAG

| IC50 (IKKε) | IC50 (hJAK2) | IC50 (TBK1) | Structure (SMILES) |
| --- | --- | --- | --- |
| 1 nM | 128 nM | 2 nM | N#Cc1cc(-c2ncnc(Nc3ccc(N4CCO[C@H](CO)C4)cc3)n2)ccc1O[C@H]1CCN(C(=O)CO)C[C@H]1F [Example 232, 2-(((3R,4S)-3-fluoro-1-(2-hydroxyacetyl)piperidin-4-yl)oxy)-5-(4-((4-((S)-2-(hydroxymethyl)morpholino)phenyl)amino)-1,3,5-triazin-2-yl)benzonitrile] |
| 1 nM | 333 nM | 2 nM | C[C@H](O)C(=O)N1CC[C@H](Oc2ccc(-c3ncnc(Nc4ccc(N5CCO[C@H](CO)C5)cc4)n3)cc2C#N)[C@H](F)C1 [Example 233, 2-(((3R,4S)-3-fluoro-1-((S)-2-hydroxypropanoyl)piperidin-4-yl)oxy)-5-(4-((4-((S)-2-(hydroxymethyl)morpholino)phenyl)amino)-1,3,5-triazin-2-yl)benzonitrile] |
| 233 nM | 723 nM | 58 nM | N#Cc1cc(-c2ncnc(Nc3ccc(N4CCN(C5COC5)CC4)cc3)n2)ccc1O[C@@H]1CCNC[C@H]1F [Example 236, 2-(((3R,4R)-3-fluoropiperidin-4-yl)oxy)-5-(4-((4-(4-(oxetan-3-yl)piperazin-1-yl)phenyl)amino)-1,3,5-triazin-2-yl)benzonitrile] |
| 59 nM | 409 nM | 8 nM | N#Cc1cc(-c2ncnc(Nc3ccc(N4CCN(C5COC5)CC4)cc3)n2)ccc1O[C@H]1CCNC[C@H]1F [Example 239, 2-(((3R,4S)-3-fluoropiperidin-4-yl)oxy)-5-(4-((4-(4-(oxetan-3-yl)piperazin-1-yl)phenyl)amino)-1,3,5-triazin-2-yl)benzonitrile] |
| 1 nM | 199 nM | 1 nM | N#Cc1cc(-c2ncnc(Nc3ccc(N4CCN(C5COC5)CC4)c(F)c3)n2)ccc1O[C@H]1CCN(C(=O)CO)C[C@H]1F [Example 240, 2-(((3R,4S)-3-fluoro-1-(2-hydroxyacetyl)piperidin-4-yl)oxy)-5-(4-((3-fluoro-4-(4-(oxetan-3-yl)piperazin-1-yl)phenyl)amino)-1,3,5-triazin-2-yl)benzonitrile] |
| 1 nM | 249 nM | 2 nM | C[C@@H]1CN(C2COC2)CCN1c1ccc(Nc2ncnc(-c3ccc(O[C@H]4CCN(C(=O)CO)C[C@H]4F)c(C#N)c3)n2)cc1 [Example 242, 2-(((3R,4S)-3-fluoro-1-(2-hydroxyacetyl)piperidin-4-yl)oxy)-5-(4-((4-((R)-2-methyl-4-(oxetan-3-yl)piperazin-1-yl)phenyl)amino)-1,3,5-triazin-2-yl)benzonitrile] |
| 1 nM | 191 nM | 3 nM | C[C@H]1CN(C2COC2)CCN1c1ccc(Nc2ncnc(-c3ccc(O[C@H]4CCN(C(=O)CO)C[C@H]4F)c(C#N)c3)n2)cc1 [Example 244, 2-(((3R,4S)-3-fluoro-1-(2-hydroxyacetyl)piperidin-4-yl)oxy)-5-(4-((4-((S)-2-methyl-4-(oxetan-3-yl)piperazin-1-yl)phenyl)amino)-1,3,5-triazin-2-yl)benzonitrile] |
| 1 nM | 181 nM | 2 nM | C[C@H](O)C(=O)N1CC[C@H](Oc2ccc(-c3ncnc(Nc4ccc(N5CCN(C6COC6)[C@H](C)C5)cc4)n3)cc2C#N)C(F)(F)C1 [Example 246, 2-(((S)-3,3-difluoro-1-((S)-2-hydroxypropanoyl)piperidin-4-yl)oxy)-5-(4-((4-((R)-3-methyl-4-(oxetan-3-yl)piperazin-1-yl)phenyl)amino)-1,3,5-triazin-2-yl)benzonitrile] |
| 397 nM | 333 nM | 233 nM | C[C@@H]1CN(c2ccc(Nc3ncnc(-c4ccc(O[C@@H]5CCN(C(=O)[C@@H](C)O)CC5(F)F)c(C#N)c4)n3)cc2)CCN1C1COC1 [Example 247, 2-(((R)-3,3-difluoro-1-((R)-2-hydroxypropanoyl)piperidin-4-yl)oxy)-5-(4-((4-((R)-3-methyl-4-(oxetan-3-yl)piperazin-1-yl)phenyl)amino)-1,3,5-triazin-2-yl)benzonitrile] |
| 3 nM | 187 nM | 3 nM | C[C@@H]1CN(c2ccc(Nc3ncnc(-c4ccc(O[C@H]5CCN(C(=O)[C@@H](C)O)CC5(F)F)c(C#N)c4)n3)cc2)CCN1C1COC1 [Example 248, 2-(((S)-3,3-difluoro-1-((R)-2-hydroxypropanoyl)piperidin-4-yl)oxy)-5-(4-((4-((R)-3-methyl-4-(oxetan-3-yl)piperazin-1-yl)phenyl)amino)-1,3,5-triazin-2-yl)benzonitrile] |
| 2 nM | 389 nM | 3 nM | C[C@H](O)C(=O)N1CC[C@H](Oc2ccc(-c3ncnc(Nc4ccc(N5CCN(C6COC6)C[C@@H]5C)cc4)n3)cc2C#N)[C@H](F)C1 [Example 249, 2-(((3R,4S)-3-fluoro-1-((S)-2-hydroxypropanoyl)piperidin-4-yl)oxy)-5-(4-((4-((S)-2-methyl-4-(oxetan-3-yl)piperazin-1-yl)phenyl)amino)-1,3,5-triazin-2-yl)benzonitrile] |
| 5 nM | 127 nM | 3 nM | C[C@H]1CN(C2COC2)CCN1c1ccc(Nc2ncnc(-c3ccc(O[C@H]4CCN(C(=O)CC#N)C[C@H]4F)c(C#N)c3)n2)cc1 [Example 250, 2-(((3R,4S)-1-(2-cyanoacetyl)-3-fluoropiperidin-4-yl)oxy)-5-(4-((4-((S)-2-methyl-4-(oxetan-3-yl)piperazin-1-yl)phenyl)amino)-1,3,5-triazin-2-yl)benzonitrile] |
| 14 nM | 369 nM | 5 nM | C[C@H]1CN(C2COC2)CCN1c1ccc(Nc2ncnc(-c3ccc(O[C@H]4CCN(C(=O)CCO)C[C@H]4F)c(C#N)c3)n2)cc1 [Example 251, 2-(((3R,4S)-3-fluoro-1-(3-hydroxypropanoyl)piperidin-4-yl)oxy)-5-(4-((4-((S)-2-methyl-4-(oxetan-3-yl)piperazin-1-yl)phenyl)amino)-1,3,5-triazin-2-yl)benzonitrile] |
| 1 nM | 213 nM | 3 nM | C[C@H](O)C(=O)N1CC[C@H](Oc2ccc(-c3ncnc(Nc4ccc(N5CCN(C6COC6)C[C@@H]5C)cc4)n3)cc2C#N)C(F)(F)C1 [Example 252, 2-(((S)-3,3-difluoro-1-((S)-2-hydroxypropanoyl)piperidin-4-yl)oxy)-5-(4-((4-((S)-2-methyl-4-(oxetan-3-yl)piperazin-1-yl)phenyl)amino)-1,3,5-triazin-2-yl)benzonitrile] |
| 2 nM | 61 nM | 3 nM | C[C@H]1CN(C2COC2)CCN1c1ccc(Nc2ncnc(-c3ccc(O[C@H]4CCN(C(=O)CC#N)CC4(F)F)c(C#N)c3)n2)cc1 [Example 253, 2-(((S)-1-(2-cyanoacetyl)-3,3-difluoropiperidin-4-yl)oxy)-5-(4-((4-((S)-2-methyl-4-(oxetan-3-yl)piperazin-1-yl)phenyl)amino)-1,3,5-triazin-2-yl)benzonitrile] |
| 5 nM | 151 nM | 3 nM | C[C@H]1CN(C2COC2)CCN1c1ccc(Nc2ncnc(-c3ccc(O[C@H]4CCN(C(=O)CCO)CC4(F)F)c(C#N)c3)n2)cc1 [Example 254, 2-(((S)-3,3-difluoro-1-(3-hydroxypropanoyl)piperidin-4-yl)oxy)-5-(4-((4-((S)-2-methyl-4-(oxetan-3-yl)piperazin-1-yl)phenyl)amino)-1,3,5-triazin-2-yl)benzonitrile] |
| 2 nM | 227 nM | 4 nM | C[C@H]1CN(C2COC2)CCN1c1ccc(Nc2ncnc(-c3ccc(O[C@H]4CCN(C(=O)c5cnn[nH]5)C[C@H]4F)c(C#N)c3)n2)cc1 [Example 255, 2-(((3R,4S)-3-fluoro-1-(1H-1,2,3-triazole-5-carbonyl)piperidin-4-yl)oxy)-5-(4-((4-((S)-2-methyl-4-(oxetan-3-yl)piperazin-1-yl)phenyl)amino)-1,3,5-triazin-2-yl)benzonitrile] |
| 1 nM | 144 nM | 3 nM | C[C@H]1CN(C2COC2)CCN1c1ccc(Nc2ncnc(-c3ccc(O[C@H]4CCN(C(=O)c5cnc[nH]5)C[C@H]4F)c(C#N)c3)n2)cc1 [Example 256, 2-(((3R,4S)-3-fluoro-1-(1H-imidazole-5-carbonyl)piperidin-4-yl)oxy)-5-(4-((4-((S)-2-methyl-4-(oxetan-3-yl)piperazin-1-yl)phenyl)amino)-1,3,5-triazin-2-yl)benzonitrile] |
| 1 nM | 270 nM | 2 nM | C[C@H]1CN(C2COC2)CCN1c1ccc(Nc2ncnc(-c3ccc(O[C@H]4CCN(C(=O)c5ccn[nH]5)C[C@H]4F)c(C#N)c3)n2)cc1 [Example 257, 2-(((3R,4S)-3-fluoro-1-(1H-pyrazole-5-carbonyl)piperidin-4-yl)oxy)-5-(4-((4-((S)-2-methyl-4-(oxetan-3-yl)piperazin-1-yl)phenyl)amino)-1,3,5-triazin-2-yl)benzonitrile] |
| 1 nM | 66 nM | 3 nM | C[C@H]1CN(C2COC2)CCN1c1ccc(Nc2ncnc(-c3ccc(O[C@H]4CCN(C(=O)c5cnc[nH]5)CC4(F)F)c(C#N)c3)n2)cc1 [Example 259, 2-(((S)-3,3-difluoro-1-(1H-imidazole-5-carbonyl)piperidin-4-yl)oxy)-5-(4-((4-((S)-2-methyl-4-(oxetan-3-yl)piperazin-1-yl)phenyl)amino)-1,3,5-triazin-2-yl)benzonitrile] |
| 1 nM | 156 nM | 2 nM | C[C@H](O)C(=O)N1CC[C@H](Oc2ccc(-c3ncnc(Nc4ccc(N5CCN(C6COC6)[C@@H](C)C5)cc4)n3)cc2C#N)C(F)(F)C1 [Example 262, 2-(((S)-3,3-difluoro-1-((S)-2-hydroxypropanoyl)piperidin-4-yl)oxy)-5-(4-((4-((S)-3-methyl-4-(oxetan-3-yl)piperazin-1-yl)phenyl)amino)-1,3,5-triazin-2-yl)benzonitrile] |
